Patent publication US8216800B2, “Substrates for detecting peptidase activity and methods using the substrates” (Biomerieux, priority 2007, dated 2012)

Columns and labels:
Assay in all cases: Peptidase activity detection on Columbia agar containing substrate
Type in all cases: cell-based
[1] = tested on: Staphylococcus aureus NCTC 11939; parameters: key: − = no fluorescence detected; e = trace of fluorescence; +/− = weak fluorescence; + = medium fluorescence; ++ = strong fluorescence; NG = No Growth; conditions: Staphylococcus aureus (MRSA) NCTC 11939; substrate 100 mg/l, 24 hours at 37° C., UV 360-365 nm
Procedure: (§1) 40 mg of each substrate are dissolved in 4 ml of dimethylformamide (DMF). This solution is completely taken up in 400 ml of Columbia agar autoclaved beforehand and kept molten at 50° C. The final concentration for each substrate is therefore 100 mg/l. Each of the media is distributed into 90 mm Petri dishes in a proportion of 20 ml per dish.
(§2) 18 microorganism strains derived from collections and belonging to various species of bacteria and of yeasts are inoculated onto these media by semi-quantitative isolation of 10 μl of a suspension at 0.5 McFarland diluted to 1/20. The media are incubated for 24 hours at 37° C., and then the colonies formed are examined visually under UV illumination at 360-365 nm.

[2] = tested on: Enterococcus faecium NCTC 11047; parameters: key: − = no fluorescence detected; e = trace of fluorescence; +/− = weak fluorescence; + = medium fluorescence; ++ = strong fluorescence; NG = No Growth; conditions: Enterococcus faecium NCTC 11047 (Table 2); substrate 100 mg/l, 24 hours at 37° C., UV 360-365 nm
Procedure: as §1, §2

[3] = tested on: Escherichia coli NCTC 10418; parameters: key: − = no fluorescence detected; e = trace of fluorescence; +/− = weak fluorescence; + = medium fluorescence; ++ = strong fluorescence; NG = No Growth; conditions: substrate 100 mg/l, 24 hours at 37° C., UV 360-365 nm
Procedure: as §1, §2

[4] = tested on: Candida glabrata NCPF3943; parameters: key: − = no fluorescence detected; e = trace of fluorescence; +/− = weak fluorescence; + = medium fluorescence; ++ = strong fluorescence; NG = No Growth; conditions: substrate 100 mg/l, 24 hours at 37° C., UV 360-365 nm
Procedure: as §1, §2

[5] = tested on: Staphylococcus aureus NCTC 6571; parameters: key: − = no fluorescence detected; e = trace of fluorescence; +/− = weak fluorescence; + = medium fluorescence; ++ = strong fluorescence; NG = No Growth; conditions: substrate 100 mg/l, 24 hours at 37° C., UV 360-365 nm
Procedure: as §1, §2

[6] = tested on: Candida albicans ATCC 90028; parameters: key: − = no fluorescence detected; e = trace of fluorescence; +/− = weak fluorescence; + = medium fluorescence; ++ = strong fluorescence; NG = No Growth; conditions: substrate 100 mg/l, 24 hours at 37° C., UV 360-365 nm
Procedure: as §1, §2

[7] = tested on: Serratia marcescens NCTC 10211; parameters: key: − = no fluorescence detected; e = trace of fluorescence; +/− = weak fluorescence; + = medium fluorescence; ++ = strong fluorescence; NG = No Growth; conditions: substrate 100 mg/l, 24 hours at 37° C., UV 360-365 nm
Procedure: as §1, §2

[8] = tested on: Yersinia enterocolitica NCTC 11176; parameters: key: − = no fluorescence detected; e = trace of fluorescence; +/− = weak fluorescence; + = medium fluorescence; ++ = strong fluorescence; NG = No Growth; conditions: substrate 100 mg/l, 24 hours at 37° C., UV 360-365 nm
Procedure: as §1, §2

[9] = tested on: Salmonella Typhimurium NCTC 74; parameters: key: − = no fluorescence detected; e = trace of fluorescence; +/− = weak fluorescence; + = medium fluorescence; ++ = strong fluorescence; NG = No Growth; conditions: substrate 100 mg/l, 24 hours at 37° C., UV 360-365 nm
Procedure: as §1, §2

[10] = tested on: Providencia rettgeri NCTC 7475; parameters: key: − = no fluorescence detected; e = trace of fluorescence; +/− = weak fluorescence; + = medium fluorescence; ++ = strong fluorescence; NG = No Growth; conditions: substrate 100 mg/l, 24 hours at 37° C., UV 360-365 nm
Procedure: as §1, §2

[11] = tested on: Enterococcus faecalis NCTC 775; parameters: key: − = no fluorescence detected; e = trace of fluorescence; +/− = weak fluorescence; + = medium fluorescence; ++ = strong fluorescence; NG = No Growth; conditions: substrate 100 mg/l, 24 hours at 37° C., UV 360-365 nm
Procedure: as §1, §2

[12] = tested on: Bacillus subtilis NCTC 9372; parameters: key: − = no fluorescence detected; e = trace of fluorescence; +/− = weak fluorescence; + = medium fluorescence; ++ = strong fluorescence; NG = No Growth; conditions: substrate 100 mg/l, 24 hours at 37° C., UV 360-365 nm
Procedure: as §1, §2

[13] = tested on: Enterobacter cloacae NCTC 11936; parameters: key: − = no fluorescence detected; e = trace of fluorescence; +/− = weak fluorescence; + = medium fluorescence; ++ = strong fluorescence; NG = No Growth; conditions: substrate 100 mg/l, 24 hours at 37° C., UV 360-365 nm
Procedure: as §1, §2

[14] = tested on: Listeria monocytogenes NCTC 11994; parameters: key: − = no fluorescence detected; e = trace of fluorescence; +/− = weak fluorescence; + = medium fluorescence; ++ = strong fluorescence; NG = No Growth; conditions: substrate 100 mg/l, 24 hours at 37° C., UV 360-365 nm
Procedure: as §1, §2

[15] = tested on: Streptococcus pyogenes NCTC 8306; parameters: key: − = no fluorescence detected; e = trace of fluorescence; +/− = weak fluorescence; + = medium fluorescence; ++ = strong fluorescence; NG = No Growth; conditions: substrate 100 mg/l, 24 hours at 37° C., UV 360-365 nm
Procedure: as §1, §2

[16] = tested on: Staphylococcus epidermidis NCTC 11047; parameters: key: − = no fluorescence detected; e = trace of fluorescence; +/− = weak fluorescence; + = medium fluorescence; ++ = strong fluorescence; NG = No Growth; conditions: substrate 100 mg/l, 24 hours at 37° C., UV 360-365 nm
Procedure: as §1, §2

enterococcal strains = conditions: the two enterococcal strains
Procedure: as §1, §2

[17] = tested on: Staphylococcus aureus strains; conditions: the two Staphylococcus aureus strains
Procedure: as §1, §2

[18] = tested on: Gram-negative bacterial strains; conditions: all the Gram-negative bacterial strains with the exception of the Burkholderia cepacia strain
Procedure: as §1, §2

[19] = tested on: Burkholderia cepacia 1222; parameters: key to fluorescence intensity: − = no fluorescence detected; e = trace of fluorescence; +/− = weak fluorescence; + = medium fluorescence; ++ = strong fluorescence; NG = No Growth; conditions: Burkholderia cepacia 1222; substrate 100 mg/l, 24 hours at 37° C., UV 360-365 nm
Procedure: as §1, §2

[20] = tested on: Pseudomonas aeruginosa NCTC 10662; parameters: key to fluorescence intensity: − = no fluorescence detected; e = trace of fluorescence; +/− = weak fluorescence; + = medium fluorescence; ++ = strong fluorescence; NG = No Growth; conditions: Pseudomonas aeruginosa NCTC 10662; substrate 100 mg/l, 24 hours at 37° C., UV 360-365 nm
Procedure: as §1, §2

[21] = tested on: Gram-positive bacterial strains and the yeasts; conditions: all the Gram-positive bacterial strains and the yeasts
Procedure: as §1, §2

[22] = tested on: Citrobacter freundii 46262 (wild); parameters: key: − = no fluorescence detected; e = trace of fluorescence; +/− = weak fluorescence; + = medium fluorescence; ++ = strong fluorescence; NG = No Growth; conditions: substrate 100 mg/l, 24 hours at 37° C., UV 360-365 nm
Procedure: as §1, §2

[23] = tested on: Enterococcus faecium NCTC 7171; parameters: key: − = no fluorescence detected; e = trace of fluorescence; +/− = weak fluorescence; + = medium fluorescence; ++ = strong fluorescence; NG = No Growth; conditions: Enterococcus faecium NCTC 7171 (Table 3); substrate 100 mg/l, 24 hours at 37° C., UV 360-365 nm
Procedure: as §1, §2

[24] = tested on: Morganella morganii 462403 (wild); parameters: key: − = no fluorescence detected; e = trace of fluorescence; +/− = weak fluorescence; + = medium fluorescence; ++ = strong fluorescence; NG = No Growth; conditions: substrate 100 mg/l, 24 hours at 37° C., UV 360-365 nm
Procedure: as §1, §2

| SMILES | fluorescence intensity [1] | fluorescence intensity [2] | fluorescence intensity [3] | fluorescence intensity [4] | fluorescence intensity [5] | fluorescence intensity [6] | fluorescence intensity [7] | fluorescence intensity [8] | fluorescence intensity [9] | fluorescence intensity [10] | fluorescence intensity [11] | fluorescence intensity [12] | fluorescence intensity [13] | fluorescence intensity [14] | fluorescence intensity [15] | fluorescence intensity [16] | fluorescence intensity [19] | fluorescence intensity [20] | other results |
| --- | --- | --- | --- | --- | --- | --- | --- | --- | --- | --- | --- | --- | --- | --- | --- | --- | --- | --- | --- |
| C[C@H](N)C(=O)Nc1ccccc1-c1nc2ccccc2o1 [Substrate 1] | + | +/− | ++^1 | − | + | − | ++ | ++ | ++ | ++ | +/− | − | ++ | +/− | − | − | − | ++ | fluorescence produced (enterococcal strains): weak blue fluorescence; fluorescence produced [17]: medium green fluorescence; fluorescence produced [18]: strong blue fluorescence |
| C[C@H](N)C(=O)Nc1ccccc1-c1nc2ccccc2s1 [Substrate 17] | NG | NG | + | NG | NG | NG | + | + | NG | + | NG | NG | + | NG | NG | NG | + | + | toxicity (growth inhibition, text) [21]: inhibited |
| C[C@H](N)C(=O)Nc1ccccc1-c1nc2ccccc2n1CCc1ccccc1 [Substrate 14] | − |  | − | − | − | − | +/− | − | − | − | − | − | +/− | − | − | − | − | − | fluorescence intensity [22]: −; fluorescence intensity [23]: −; fluorescence intensity [24]: − |
